Results as given in paper PMC12010937, “Evaluation of FXR Activity in Pollutants Identified in Sewage Sludge and Subsequent in Vitro and in Vivo Characterization of Metabolic Effects of Triphenyl Phosphate” (Environmental Health Perspectives, 2025).
Where “and” joins values, the source holds several entries; their conditions need not be identical. Equal entries are not always repeated.

What was measured:
[1] = tested on: FXR target genes and ceramide synthesis genes in ileum; assay: qPCR of genes in mouse ileum; format: in vivo, C57BL/6N mice
Method: (§1) Male C57BL/6N mice (8 wk of age) were purchased from Beijing Vital River Laboratory Inc. and acclimated to the environment for 2 wk before they were used for experiments. The environment was maintained at 22°C, in a 12-h light/dark cycle with 50%–60% relative humidity and fed standard chow diets. Because the male mice are more sensitive to metabolic disease than female mice and the estrous cycle of female mice may induce variability to the metabolic phenotypes,[50] only male mice were used in this study. Animals were randomly assigned to control or TPHP treatment groups (five mice per group). Mice were exposed to corn oil (control) purchased from Sigma-Aldrich (C8267) or TPHP (dissolved in corn oil) at 10mg/kg or 50mg/kg body weight (BW) by daily oral gavage for 35 d. The administered volume was 5mL/kg BW. The TPHP corn oil solutions for administration were prepared by dissolving the TPHP in corn oil, and the solutions were stored at −20°C and freshly prepared each week. BW was measured every other day during the dosing period. At the end of experiments, the mice were anesthetized with isoflurane, then blood was collected from the retro-orbital sinus via orbital puncture, and then the mice were euthanized by cervical dislocation. The liver was isolated, weighted, and divided into three fractions: one fraction was fixed with 4% neutral-buffered formalin for Oil Red staining; another fraction was frozen in liquid nitrogen and stored at −80°C for the BA targeted analysis, lipidomic analysis, and qPCR analysis; the remaining fraction was embedded with 3% carboxymethylcellulose (CMC) for MSI analysis. The ileum was also isolated, weighted, and stored at −80°C for the BA targeted analysis and qRT-PCR analysis. Cecal contents were collected from the cecum of mice for the 16S rRNA gene sequencing analysis. Animal study protocols were approved by the Animal Care and Use Committee of Peking University (approval number: Urban-WanY-1).
(§2) Total RNA was extracted from cells or mice tissues (liver and ileum) using the Total RNA kit (Tiangen Biotech), and concentration and quality of the RNA were determined using a SMA4000 Nanodrop spectrophotometer (Merinton). Then, the RNA was reverse transcribed into cDNA by HiScript III RT SuperMix for qPCR (Vazyme). In addition, qPCR was performed in the Mx3005P real-time PCR system (Agilent Technologies) with the ChamQ SYBR qPCR Master Mix Kit (Vazyme). Reactions were carried out for 5 min at 95°C, followed by 40 cycles of two-step PCR for 10 s at 95°C and 30 s at 60°C. The relative RNA expression levels of the target genes were normalized to GAPDH using the 2^−ΔΔCt method.

[2] = tested on: FXR, PXR and PPARγ target genes in liver; assay: qPCR of genes in mouse liver; format: in vivo, C57BL/6N mice; conditions: TPHP-H: 50 mg/kg, 35 d
Method: as §1, §2

Question: Which results are given for `O=P(Oc1ccccc1)(Oc1ccccc1)Oc1ccccc1` [TPHP, triphenyl phosphate]?
Answer: Relative mRNA expression of Asbt in ileum ([1]; TPHP-H: 50 mg/kg, 35 d): 1.65 fold changes and 1.26 fold changes and 1.68 fold changes; Relative mRNA expression of Cers2 in ileum ([1]; TPHP-H: 50 mg/kg, 35 d): 0.89 fold changes and 1.24 fold changes and 1.27 fold changes; Relative mRNA expression of Cers4 in ileum ([1]; TPHP-H: 50 mg/kg, 35 d): 1.11 fold changes and 0.99 fold changes and 1.05 fold changes; Relative mRNA expression of Cers6 in ileum ([1]; TPHP-H: 50 mg/kg, 35 d): 0.73 fold changes and 1.06 fold changes and 0.97 fold changes; Relative mRNA expression of Degs1 in ileum ([1]; TPHP-H: 50 mg/kg, 35 d): 0.95 fold changes and 0.99 fold changes and 1.02 fold changes; Relative mRNA expression of Degs2 in ileum ([1]; TPHP-H: 50 mg/kg, 35 d): 1.14 fold changes and 1.06 fold changes and 1.21 fold changes; Relative mRNA expression of Ibabp in ileum ([1]; TPHP-H: 50 mg/kg, 35 d): 0.78 fold changes and 0.85 fold changes and 0.92 fold changes; Relative mRNA expression of Ostα in ileum ([1]; TPHP-H: 50 mg/kg, 35 d): 0.84 fold changes and 0.68 fold changes and 0.79 fold changes; Relative mRNA expression of Shp in ileum ([1]; TPHP-H: 50 mg/kg, 35 d): 0.10 fold changes and 0.18 fold changes and 0.19 fold changes; Relative mRNA expression of Smpd2 in ileum ([1]; TPHP-H: 50 mg/kg, 35 d): 1.21 fold changes and 1.23 fold changes and 0.91 fold changes; Relative mRNA expression of Smpd3 in ileum ([1]; TPHP-H: 50 mg/kg, 35 d): 0.99 fold changes and 0.93 fold changes and 1.32 fold changes; Relative mRNA expression of Smpd4 in ileum ([1]; TPHP-H: 50 mg/kg, 35 d): 0.86 fold changes and 0.81 fold changes and 0.93 fold changes; Relative mRNA expression of Sptlc1 in ileum ([1]; TPHP-H: 50 mg/kg, 35 d): 1.12 fold changes and 0.98 fold changes and 0.80 fold changes; Relative mRNA expression of Sptlc2 in ileum ([1]; TPHP-H: 50 mg/kg, 35 d): 1.09 fold changes and 1.01 fold changes and 0.85 fold changes; Relative mRNA expression of Asbt in ileum ([1]; TPHP-L: 10 mg/kg, 35 d): 1.43 fold changes and 1.04 fold changes and 1.42 fold changes; Relative mRNA expression of Cers2 in ileum ([1]; TPHP-L: 10 mg/kg, 35 d): 1.06 fold changes and 1.32 fold changes and 1.08 fold changes; Relative mRNA expression of Cers4 in ileum ([1]; TPHP-L: 10 mg/kg, 35 d): 1.04 fold changes and 1.11 fold changes and 1.40 fold changes; Relative mRNA expression of Cers6 in ileum ([1]; TPHP-L: 10 mg/kg, 35 d): 0.77 fold changes and 1.22 fold changes and 1.15 fold changes; Relative mRNA expression of Degs1 in ileum ([1]; TPHP-L: 10 mg/kg, 35 d): 1.06 fold changes and 1.19 fold changes and 1.18 fold changes; Relative mRNA expression of Degs2 in ileum ([1]; TPHP-L: 10 mg/kg, 35 d): 1.13 fold changes and 0.96 fold changes and 1.41 fold changes; Relative mRNA expression of Fgf15 in ileum ([1]; TPHP-L: 10 mg/kg, 35 d): 0.80 fold changes and 0.54 fold changes and 0.50 fold changes; Relative mRNA expression of Ibabp in ileum ([1]; TPHP-L: 10 mg/kg, 35 d): 0.79 fold changes and 0.87 fold changes and 0.75 fold changes; Relative mRNA expression of Ostα in ileum ([1]; TPHP-L: 10 mg/kg, 35 d): 0.81 fold changes and 0.96 fold changes and 0.82 fold changes; Relative mRNA expression of Shp in ileum ([1]; TPHP-L: 10 mg/kg, 35 d): 0.33 fold changes and 0.38 fold changes and 0.36 fold changes; Relative mRNA expression of Smpd2 in ileum ([1]; TPHP-L: 10 mg/kg, 35 d): 1.01 fold changes and 1.00 fold changes and 1.07 fold changes; Relative mRNA expression of Smpd3 in ileum ([1]; TPHP-L: 10 mg/kg, 35 d): 1.11 fold changes and 1.07 fold changes and 1.10 fold changes; Relative mRNA expression of Smpd4 in ileum ([1]; TPHP-L: 10 mg/kg, 35 d): 0.84 fold changes and 0.96 fold changes; Relative mRNA expression of Sptlc1 in ileum ([1]; TPHP-L: 10 mg/kg, 35 d): 0.87 fold changes and 1.15 fold changes and 0.75 fold changes; Relative mRNA expression of Sptlc2 in ileum ([1]; TPHP-L: 10 mg/kg, 35 d): 0.89 fold changes and 1.15 fold changes and 1.13 fold changes; Expression of ceramide synthesis genes in the ileum vs control (in words) ([1]; after TPHP exposure): not significantly different; Relative mRNA expression of Acc1 in liver [2]: 1.30 fold changes and 1.85 fold changes and 1.75 fold changes; Relative mRNA expression of Acly in liver [2]: 1.31 fold changes and 1.49 fold changes and 1.68 fold changes; Relative mRNA expression of Bsep in liver [2]: 0.59 fold changes and 0.34 fold changes and 0.54 fold changes; Relative mRNA expression of Cd36 in liver [2]: 0.97 fold changes and 1.09 fold changes and 0.65 fold changes; Relative mRNA expression of Cpt1a in liver [2]: 0.75 fold changes and 0.89 fold changes and 1.31 fold changes; Relative mRNA expression of Cyp2b10 in liver [2]: 1.32 fold changes and 0.97 fold changes and 0.68 fold changes; Relative mRNA expression of Cyp3a11 in liver [2]: 0.93 fold changes and 0.74 fold changes and 0.82 fold changes; Relative mRNA expression of Cyp7a1 in liver [2]: 2.89 fold changes and 2.77 fold changes and 3.66 fold changes
